System: 356 CRISPRi constructs in E. coli ΔtolC-pore
Assay: CRISPRi collection fitness screen with sub-inhibitory compound
Format: cell-based
Conditions: for Growth represented as mean colony biomass: 1μg/ml MAC0452936, 6ng/ml LolCDE-in-1, 250 ng/ml Vancomycin, 7 ng/ml CHIR090, n=4; for Growth, mean colony biomass (n=4): + 1μg/ml MAC0452936
Outline: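 Mobile CRISPRi collection conjugated into the ΔtolC-pore strain and pinned on agar at 1536 density in technical quadruplicate with a sub-inhibitory MAC-0452936 concentration. No CRISPRi induction; only basal 5–10% knockdown.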

## COc1ccc(C(=O)O/N=C(\c2cccs2)C(C)(C)C)cc1 [MAC0452936]
gRNA accA
  Growth represented as mean colony biomass: 0.9619
gRNA aceF
  Growth, mean colony biomass (n=4): 1.536
gRNA alaS
  Growth, mean colony biomass (n=4): 1.17
gRNA argS
  Growth, mean colony biomass (n=4): 1.078
gRNA asnS
  Growth, mean colony biomass (n=4): 1.097
gRNA bamA
  Growth, mean colony biomass (n=4): 1.082
gRNA bamD
  Growth, mean colony biomass (n=4): 1.114
gRNA bioA
  Growth, mean colony biomass (n=4): 1.093
gRNA can
  Growth, mean colony biomass (n=4): 1.0791
gRNA cca
  Growth represented as mean colony biomass: 0.9631
gRNA coaA
  Growth represented as mean colony biomass: 0.9606
gRNA csrA
  Growth, mean colony biomass (n=4): 1.147
gRNA cydA
  Growth represented as mean colony biomass: 0.9568
gRNA cydX
  Growth represented as mean colony biomass: 0.9584
gRNA dapD
  Growth represented as mean colony biomass: 0.9537
gRNA dapE
  Growth represented as mean colony biomass: 0.9829
gRNA der
  Growth represented as mean colony biomass: 0.8304
gRNA dfp
  Growth represented as mean colony biomass: 0.9766
gRNA dnaC
  Growth, mean colony biomass (n=4): 1.0695
gRNA dnaE
  Growth represented as mean colony biomass: 0.9743
gRNA dnaN
  Growth represented as mean colony biomass: 0.9941
gRNA dnaX
  Growth represented as mean colony biomass: 0.9797
gRNA dut
  Growth, mean colony biomass (n=4): 1.096
gRNA eno
  Growth represented as mean colony biomass: 0.9696
gRNA era
  Growth represented as mean colony biomass: 0.9809
gRNA fabA
  Growth represented as mean colony biomass: 0.9981
gRNA fabG
  Growth represented as mean colony biomass: 0.9894
gRNA fabI
  Growth represented as mean colony biomass: 0.9716
gRNA fdx
  Growth represented as mean colony biomass: 0.9955
gRNA fldA
  Growth represented as mean colony biomass: 0.9924
gRNA folA
  Growth, mean colony biomass (n=4): 1.134
gRNA folB
  Growth represented as mean colony biomass: 0.9792
gRNA folC
  Growth, mean colony biomass (n=4): 1.076
gRNA folE
  Growth represented as mean colony biomass: 0.9726
gRNA folP
  Growth represented as mean colony biomass: 0.9946
gRNA frr
  Growth represented as mean colony biomass: 0.9805
gRNA ftsA
  Growth, mean colony biomass (n=4): 1.121
gRNA gapA
  Growth represented as mean colony biomass: 0.983
gRNA glmS
  Growth, mean colony biomass (n=4): 1.092
gRNA glmU
  Growth represented as mean colony biomass: 0.9808
gRNA gltX
  Growth represented as mean colony biomass: 0.9823
gRNA glyA
  Growth, mean colony biomass (n=4): 1.091
gRNA groS
  Growth represented as mean colony biomass: 0.9881
gRNA grpE
  Growth represented as mean colony biomass: 0.9656
gRNA guaA
  Growth represented as mean colony biomass: 0.9795
gRNA hemD
  Growth, mean colony biomass (n=4): 1.079
gRNA hemG
  Growth represented as mean colony biomass: 0.9986
gRNA hemH
  Growth represented as mean colony biomass: 1.001
gRNA hemL
  Growth represented as mean colony biomass: 0.9838
gRNA higA
  Growth represented as mean colony biomass: 0.9635
gRNA hisS
  Growth represented as mean colony biomass: 0.9859
gRNA holD
  Growth represented as mean colony biomass: 0.9764
gRNA hscA
  Growth represented as mean colony biomass: 0.9953
gRNA infA
  Growth, mean colony biomass (n=4): 1.088
gRNA infC
  Growth represented as mean colony biomass: 0.9986
gRNA iscU
  Growth represented as mean colony biomass: 0.9867
gRNA ispB
  Growth represented as mean colony biomass: 0.9983
gRNA ispF
  Growth represented as mean colony biomass: 0.9875
gRNA leuS
  Growth, mean colony biomass (n=4): 1.417
gRNA lexA
  Growth, mean colony biomass (n=4): 1.542
gRNA lolC
  Growth represented as mean colony biomass: 0.9579
gRNA lptA
  Growth, mean colony biomass (n=4): 1.476
gRNA lptB
  Growth, mean colony biomass (n=4): 1.32
gRNA lptC
  Growth represented as mean colony biomass: 0.9585
gRNA lptE
  Growth represented as mean colony biomass: 0.965
gRNA lptF
  Growth represented as mean colony biomass: 0.9902
gRNA lptG
  Growth represented as mean colony biomass: 0.9845
gRNA lpxC
  Growth represented as mean colony biomass: 0.9609
gRNA lpxD
  Growth represented as mean colony biomass: 0.9569
gRNA mnmA
  Growth, mean colony biomass (n=4): 1.086
gRNA mrdB
  Growth, mean colony biomass (n=4): 1.167
gRNA mreB
  Growth represented as mean colony biomass: 0.9936
gRNA mreC
  Growth represented as mean colony biomass: 0.9829
gRNA msbA
  Growth, mean colony biomass (n=4): 1.264
gRNA mukF
  Growth, mean colony biomass (n=4): 1.116
gRNA murB
  Growth represented as mean colony biomass: 0.9708
gRNA murC
  Growth represented as mean colony biomass: 0.97
gRNA murI
  Growth, mean colony biomass (n=4): 1.3051
gRNA nadK
  Growth, mean colony biomass (n=4): 1.081
gRNA nusB
  Growth represented as mean colony biomass: 0.9578
gRNA plsB
  Growth represented as mean colony biomass: 0.995
gRNA prmC
  Growth, mean colony biomass (n=4): 1.083
gRNA proS
  Growth represented as mean colony biomass: 0.9787
gRNA psd
  Growth, mean colony biomass (n=4): 1.711
gRNA pssA
  Growth, mean colony biomass (n=4): 1.089
gRNA ptsI
  Growth, mean colony biomass (n=4): 1.104
gRNA racR
  Growth represented as mean colony biomass: 0.9926
gRNA rho
  Growth, mean colony biomass (n=4): 1.226
gRNA ribA
  Growth represented as mean colony biomass: 0.9923
gRNA ribC
  Growth represented as mean colony biomass: 0.9978
gRNA ribD
  Growth, mean colony biomass (n=4): 1.096
gRNA ribF
  Growth represented as mean colony biomass: 0.9646
gRNA rimM
  Growth represented as mean colony biomass: 0.9609
gRNA rluD
  Growth represented as mean colony biomass: 0.9905
gRNA rne
  Growth, mean colony biomass (n=4): 1.098
gRNA rpe
  Growth represented as mean colony biomass: 0.9763
gRNA rplA
  Growth, mean colony biomass (n=4): 1.0727
gRNA rplD
  Growth represented as mean colony biomass: 0.8324
gRNA rplE
  Growth represented as mean colony biomass: 0.9904
gRNA rplJ
  Growth represented as mean colony biomass: 0.9775
gRNA rplO
  Growth represented as mean colony biomass: 0.9724
gRNA rplP
  Growth, mean colony biomass (n=4): 1.071
gRNA rplQ
  Growth represented as mean colony biomass: 0.9778
gRNA rplS
  Growth represented as mean colony biomass: 0.9888
gRNA rplV
  Growth, mean colony biomass (n=4): 1.1552
gRNA rplX
  Growth, mean colony biomass (n=4): 1.077
gRNA rplY
  Growth represented as mean colony biomass: 0.9853
gRNA rpmC
  Growth, mean colony biomass (n=4): 1.078
gRNA rpmH
  Growth represented as mean colony biomass: 0.9594
gRNA rpmI
  Growth represented as mean colony biomass: 1.001
gRNA rpoC
  Growth, mean colony biomass (n=4): 1.115
gRNA rpoE
  Growth, mean colony biomass (n=4): 1.071
gRNA rpoH
  Growth represented as mean colony biomass: 0.994
gRNA rpsC
  Growth, mean colony biomass (n=4): 1.101
gRNA rpsD
  Growth, mean colony biomass (n=4): 1.173
gRNA rpsE
  Growth represented as mean colony biomass: 0.8351
gRNA rpsF
  Growth represented as mean colony biomass: 0.9675
gRNA rpsG
  Growth, mean colony biomass (n=4): 1.126
gRNA rpsH
  Growth represented as mean colony biomass: 0.8152
gRNA rpsK
  Growth, mean colony biomass (n=4): 1.169
gRNA rpsL
  Growth, mean colony biomass (n=4): 1.132
gRNA rpsM
  Growth, mean colony biomass (n=4): 1.248
gRNA rpsR
  Growth, mean colony biomass (n=4): 1.124
gRNA rpsT
  Growth, mean colony biomass (n=4): 1.094
gRNA rsgA
  Growth represented as mean colony biomass: 0.8391
gRNA safA
  Growth represented as mean colony biomass: 0.9619
gRNA secA
  Growth, mean colony biomass (n=4): 1.102
gRNA secY
  Growth represented as mean colony biomass: 0.8296
gRNA serS
  Growth represented as mean colony biomass: 0.9537
gRNA ssb
  Growth represented as mean colony biomass: 0.8295
gRNA sucA
  Growth represented as mean colony biomass: 0.8419
gRNA suhB
  Growth, mean colony biomass (n=4): 1.09
gRNA tilS
  Growth represented as mean colony biomass: 0.9915
gRNA tonB
  Growth represented as mean colony biomass: 0.9615
gRNA trmD
  Growth represented as mean colony biomass: 0.9721
gRNA tsaB
  Growth represented as mean colony biomass: 0.9923
gRNA tsaD
  Growth represented as mean colony biomass: 0.966
gRNA tsaE
  Growth, mean colony biomass (n=4): 1.071
gRNA tsf
  Growth represented as mean colony biomass: 0.966
gRNA tusE
  Growth represented as mean colony biomass: 0.9697
gRNA tyrS
  Growth represented as mean colony biomass: 0.9746
gRNA ubiB
  Growth represented as mean colony biomass: 0.9956
gRNA ubiD
  Growth represented as mean colony biomass: 0.9717
gRNA waaA
  Growth, mean colony biomass (n=4): 1.073
gRNA ydaS
  Growth represented as mean colony biomass: 0.9729
gRNA ydcD
  Growth represented as mean colony biomass: 0.9759
gRNA ydhL
  Growth represented as mean colony biomass: 1
gRNA yedN
  Growth, mean colony biomass (n=4): 1.142
gRNA yejM
  Growth represented as mean colony biomass: 0.9938
gRNA yffS
  Growth represented as mean colony biomass: 0.9919
gRNA ygeF
  Growth represented as mean colony biomass: 0.966
gRNA ygeN
  Growth, mean colony biomass (n=4): 1.0865
gRNA yidC
  Growth represented as mean colony biomass: 0.8136
gRNA ymfE
  Growth represented as mean colony biomass: 0.9804
gRNA ymiB
  Growth represented as mean colony biomass: 0.9585
gRNA yqeL
  Growth, mean colony biomass (n=4): 1.316
gRNA yqgF
  Growth represented as mean colony biomass: 0.9701
gRNA zipA
  Growth, mean colony biomass (n=4): 1.803

— PMC11456916, “A screen for cell envelope stress uncovers an inhibitor of prolipoprotein diacylglyceryl transferase, Lgt, in Escherichiacoli” (iScience, 2024)
